This note sets out measurements from ChEMBL document CHEMBL3393045, “Discovery of thienoimidazole-based HCV NS5A inhibitors. Part 2: non-symmetric inhibitors with potent activity against genotype 1a and 1b” (Bioorg Med Chem Lett, 2015).

The nature of data set [1]: Oral bioavailability in Sprague-Dawley rat at 3 mg/kg. To be noted: in vivo. Format: ADME, organism-based.
The nature of data set [2]: Half life in Sprague-Dawley rat at 3 mg/kg, iv. Format: ADME, organism-based. Set-up: dose 3 mg/kg, route intravenous. To be noted: in vivo.
Data set [3] is described as follows: Clearance in Sprague-Dawley rat at 3 mg/kg, iv. Set-up: dose 3 mg/kg, route intravenous. As to conditions: in vivo. Format: ADME, organism-based.
The nature of data set [4]: AUC (0 to 8 hrs) in Sprague-Dawley rat at 3 mg/kg, po. Format: ADME, organism-based. To be noted: plasma. Set-up: time < 8 hr, dose 3 mg/kg, route oral.
Data set [5] can be described thus: Half life in Sprague-Dawley rat at 3 mg/kg, po. Format: ADME, organism-based. Also noted: dose 3 mg/kg, route oral. As to conditions: in vivo.
Data set [6] has as its system Hepatitis C virus. Nature of the data set: Antiviral activity against HCV genotype 1a infected in W11.8 cells assessed as decrease in NS5A expression in replicon cell after 4 days by luminescence based ELISA. To be noted: subtype 1a, W11.8, 96 h. Format: functional, Hepacivirus hominis. A general note: In antiviral work, replicon cells carry a viral genome segment that copies itself.

Data set [7] in a line: (§1) Cmax in Sprague-Dawley rat at 3 mg/kg, po. Format: ADME, organism-based. Also noted: dose 3 mg/kg, route oral. As to conditions: Sprague-Dawley, in vivo.
For data set [8], the system named is Hepatitis C virus. Nature of the data set: Antiviral activity against HCV genotype 1b infected in human Huh-5.2 cells assessed as decrease in HCV replicon RNA replication after 4 days by luciferase assay. Format: functional, cell-based, Hepacivirus hominis. To be noted: Huh-5-2, 96 h.
Data set [9] is described as follows: Metabolic stability in human liver microsomes assessed as remaining parent compound level at 5 uM after 30 mins in presence of NADPH and UDPGA. Format: ADME. As to conditions: read-out: Stability. (In general: Liver microsomes are a subcellular fraction often used to study metabolism.)
A short description of data set [10]: Cytotoxicity against human HuhET cells by [3H]thymidine incorporation assay. Format: cell-based. For orientation: Dividing cells build labelled thymidine or BrdU into new DNA.
The target in the next data set is Cytochrome P450 2D6 (Homo sapiens, UniProt P10635). The experiment in a line: Inhibition of CYP2D6 (unknown origin). Format: ADME.
Chain of Cytochrome P450 2D6 (P10635 whole entry): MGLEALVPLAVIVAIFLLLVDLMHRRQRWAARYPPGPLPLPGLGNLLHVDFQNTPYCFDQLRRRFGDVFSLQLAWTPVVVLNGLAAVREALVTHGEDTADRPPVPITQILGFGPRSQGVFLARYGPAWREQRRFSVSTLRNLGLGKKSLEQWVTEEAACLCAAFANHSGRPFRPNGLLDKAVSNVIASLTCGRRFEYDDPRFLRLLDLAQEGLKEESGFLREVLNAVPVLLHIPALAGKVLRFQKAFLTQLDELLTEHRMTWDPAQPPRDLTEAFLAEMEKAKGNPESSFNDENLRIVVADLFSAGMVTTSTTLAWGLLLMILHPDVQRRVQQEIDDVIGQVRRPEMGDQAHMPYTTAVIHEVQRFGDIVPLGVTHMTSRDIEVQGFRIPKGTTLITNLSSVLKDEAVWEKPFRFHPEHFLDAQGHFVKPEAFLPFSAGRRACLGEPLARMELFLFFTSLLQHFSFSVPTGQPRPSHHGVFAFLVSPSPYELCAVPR
Data set [11] in a line: Volume of distribution at steady state in Sprague-Dawley rat at 3 mg/kg, iv. Format: ADME, organism-based. Also noted: dose 3 mg/kg, route intravenous. As to conditions: in vivo, read-out: Vdss.
For a further data set, the target named is Cytochrome P450 3A4 (Homo sapiens, UniProt P08684). The experiment in a line: Inhibition of CYP3A4 (unknown origin). Format: ADME.
Chain of Cytochrome P450 3A4 (P08684 whole entry): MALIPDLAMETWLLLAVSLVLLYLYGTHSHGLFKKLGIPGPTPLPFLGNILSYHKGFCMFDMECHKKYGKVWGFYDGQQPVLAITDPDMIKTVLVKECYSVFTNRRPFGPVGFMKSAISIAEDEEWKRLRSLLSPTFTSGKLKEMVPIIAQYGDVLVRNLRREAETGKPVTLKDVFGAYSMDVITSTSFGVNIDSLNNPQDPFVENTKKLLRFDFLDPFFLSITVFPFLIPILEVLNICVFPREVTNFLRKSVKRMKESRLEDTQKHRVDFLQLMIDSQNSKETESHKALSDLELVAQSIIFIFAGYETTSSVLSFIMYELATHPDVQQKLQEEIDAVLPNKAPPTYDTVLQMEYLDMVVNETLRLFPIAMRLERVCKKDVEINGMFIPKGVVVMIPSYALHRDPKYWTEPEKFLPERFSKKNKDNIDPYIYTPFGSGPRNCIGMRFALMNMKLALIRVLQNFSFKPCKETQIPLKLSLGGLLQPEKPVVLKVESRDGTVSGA
In another data set the target is Cytochrome P450 2C9 (Homo sapiens, UniProt P11712). The experiment in a line: Inhibition of CYP2C9 (unknown origin). Format: ADME.
Chain of Cytochrome P450 2C9 (P11712 whole entry): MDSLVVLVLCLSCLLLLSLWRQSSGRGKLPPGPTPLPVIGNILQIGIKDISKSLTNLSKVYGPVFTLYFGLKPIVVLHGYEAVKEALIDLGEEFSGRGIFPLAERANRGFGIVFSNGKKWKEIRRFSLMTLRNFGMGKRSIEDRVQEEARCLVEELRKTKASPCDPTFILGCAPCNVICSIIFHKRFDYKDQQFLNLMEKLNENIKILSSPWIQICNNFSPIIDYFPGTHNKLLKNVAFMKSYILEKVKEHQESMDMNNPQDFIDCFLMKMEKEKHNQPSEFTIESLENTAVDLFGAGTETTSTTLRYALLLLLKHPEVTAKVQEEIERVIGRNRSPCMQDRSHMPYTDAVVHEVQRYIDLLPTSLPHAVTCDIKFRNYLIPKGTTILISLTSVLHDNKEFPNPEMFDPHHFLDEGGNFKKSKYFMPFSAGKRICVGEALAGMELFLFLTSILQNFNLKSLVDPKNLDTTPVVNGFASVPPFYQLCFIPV
The target of data set [12] is Voltage-gated inwardly rectifying potassium channel KCNH2 (Homo sapiens, UniProt Q12809). The experiment in a line: Inhibition of human ERG by Q-patch assay.
Chain of Voltage-gated inwardly rectifying potassium channel KCNH2 (Q12809 whole entry): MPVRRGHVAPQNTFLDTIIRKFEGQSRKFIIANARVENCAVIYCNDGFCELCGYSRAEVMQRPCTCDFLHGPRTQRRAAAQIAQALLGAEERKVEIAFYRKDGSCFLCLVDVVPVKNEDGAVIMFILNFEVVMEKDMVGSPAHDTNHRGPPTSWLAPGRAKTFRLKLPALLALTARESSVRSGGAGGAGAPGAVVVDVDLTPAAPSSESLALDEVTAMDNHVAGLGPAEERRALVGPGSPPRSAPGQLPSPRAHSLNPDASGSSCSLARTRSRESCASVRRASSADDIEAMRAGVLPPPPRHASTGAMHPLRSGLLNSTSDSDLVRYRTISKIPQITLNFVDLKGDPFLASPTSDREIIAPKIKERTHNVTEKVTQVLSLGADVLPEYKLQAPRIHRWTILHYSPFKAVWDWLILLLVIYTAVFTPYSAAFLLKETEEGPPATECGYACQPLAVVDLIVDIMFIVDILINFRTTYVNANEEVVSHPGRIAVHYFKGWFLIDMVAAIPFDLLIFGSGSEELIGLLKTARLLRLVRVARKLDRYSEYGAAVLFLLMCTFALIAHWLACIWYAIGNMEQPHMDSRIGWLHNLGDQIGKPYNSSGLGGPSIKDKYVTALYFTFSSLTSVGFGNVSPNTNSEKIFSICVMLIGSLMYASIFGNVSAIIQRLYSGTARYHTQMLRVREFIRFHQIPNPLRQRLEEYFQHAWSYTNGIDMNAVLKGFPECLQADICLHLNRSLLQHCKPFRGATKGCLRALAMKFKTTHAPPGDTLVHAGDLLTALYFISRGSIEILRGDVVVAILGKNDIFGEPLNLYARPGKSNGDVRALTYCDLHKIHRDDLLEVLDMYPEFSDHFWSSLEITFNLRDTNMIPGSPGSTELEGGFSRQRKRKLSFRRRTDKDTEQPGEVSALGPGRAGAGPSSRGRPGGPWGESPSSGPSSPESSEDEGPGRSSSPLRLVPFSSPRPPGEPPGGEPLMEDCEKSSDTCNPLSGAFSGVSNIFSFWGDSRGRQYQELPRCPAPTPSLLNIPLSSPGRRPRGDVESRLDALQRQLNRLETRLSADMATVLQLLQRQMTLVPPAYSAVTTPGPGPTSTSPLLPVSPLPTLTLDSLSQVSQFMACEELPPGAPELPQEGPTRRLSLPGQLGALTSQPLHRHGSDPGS
The nature of data set [13]: Metabolic stability in rat liver microsomes assessed as remaining parent compound level at 5 uM after 30 mins in presence of NADPH and UDPGA. To be noted: read-out: Stability. Format: ADME.
Another data set concerns Rattus norvegicus. The data set is described as §1. As to conditions: in vivo. Set-up: dose 3 mg/kg, route oral. Format: ADME, organism-based.

pEC50, pIC50: −log10 of the molar value. A value given as a limit tells only on which side of the number the result lay.

Regarding `COC(=O)N[C@H](C(=O)N1C[C@@H](C)C[C@H]1c1ncc(-c2ccc(-c3ccc(-c4cc5[nH]c([C@@H]6C[C@H](C)CN6C(=O)[C@@H](NC(=O)OC)C(C)C)nc5s4)s3)cc2)[nH]1)C(C)C`, the bioavailability in data set [1] was 11%. For the same molecule, the half-life in [2] is 402 min; in data set [5] it was 588 min. The clearance in data set [3] came to 6.9 mL/min/kg. Also, the AUC(0-t) at 8 h in data set [4] was 440 ng·h/mL. The pEC50 is 10.77 with Hepatitis C virus [6] and 11.40 in the data set with Hepatitis C virus [8]. The Cmax in [7] was determined as 10 ng/mL. Besides, the remaining at 0.5 h, 5 µM in data set [9] and in data set [13] was 100% each time. In [10], this molecule returned a CC50 of 13.3 µM. Besides, the pIC50 against Cytochrome P450 2D6 was less than 4.52; against Cytochrome P450 3A4, less than 4.52; at Cytochrome P450 2C9, 4.68; in data set [12], 4.60. Also, the Vd in data set [11] was 3.8 L/kg.

In the case of `COC(=O)N[C@H](C(=O)N1C[C@@H](C)C[C@H]1c1cn2ccc(-c3ccc(-c4cc5[nH]c([C@@H]6C[C@H](C)CN6C(=O)[C@@H](NC(=O)OC)C(C)C)nc5s4)cc3)cc2n1)C(C)C`, the figures for the pEC50 with Hepatitis C virus [6] and in the data set with Hepatitis C virus [8] were 9.52 and 10.39, respectively. The midpoint of cytotoxicity in data set [10], the CC50, lay at 15.3 µM.

As for `COC(=O)N[C@H](C(=O)N1C[C@@H](C)C[C@H]1c1ncc(-c2ccc(-c3ccc(-c4cc5[nH]c([C@@H]6C[C@H](C)CN6C(=O)[C@@H](NC(=O)OC)C(C)C)nc5s4)c(F)c3)cc2)[nH]1)C(C)C`, the pEC50 in the data set on Hepatitis C virus [6] was 10.64; in the data set with Hepatitis C virus [8], 11.70. In data set [10], the CC50 was greater than 20 µM.

Regarding `COC(=O)N[C@H](C(=O)N1C[C@@H](C)C[C@H]1c1nc2sc(-c3ccc(-c4ccc5oc([C@@H]6C[C@H](C)CN6C(=O)[C@@H](NC(=O)OC)C(C)C)nc5c4)cc3)cc2[nH]1)C(C)C`, the pEC50 in the data set with Hepatitis C virus [6] is 7.74; in the data set with Hepatitis C virus [8], 9.94. For the same molecule, the CC50 in [10] is greater than 20 µM.

Turning to `COC(=O)N[C@H](C(=O)N1C[C@@H](C)C[C@H]1c1nc2sc(-c3ccc(-c4ccc5c(c4)nc([C@@H]4C[C@H](C)CN4C(=O)[C@@H](NC(=O)OC)C(C)C)n5C)cc3)cc2[nH]1)C(C)C`, the pEC50 with Hepatitis C virus [6] was 7.89; in the data set on Hepatitis C virus [8] it was 10.72. Besides, the CC50 in data set [10] was greater than 20 µM.

On to `COC(=O)N[C@H](C(=O)N1C[C@@H](C)C[C@H]1c1ncc(-c2ccc(-c3ccc(-c4cc5[nH]c([C@@H]6C[C@H](C)CN6C(=O)[C@@H](NC(=O)OC)C(C)C)nc5s4)c(C)c3)cc2)[nH]1)C(C)C`, for which the figures for the pEC50 in the data set with Hepatitis C virus [6] and with Hepatitis C virus [8] were 10.43 and 11.40, respectively. In data set [10], this molecule showed a CC50 greater than 20 µM.

For `COC(=O)N[C@H](C(=O)N1CCC[C@H]1c1nc2cc(C#Cc3cc4[nH]c([C@@H]5CCCN5C(=O)[C@@H](NC(=O)OC)C(C)C)nc4s3)ccc2[nH]1)C(C)C`, the pEC50 is 6.08 in the data set on Hepatitis C virus [6] and 9.67 in the data set with Hepatitis C virus [8].

Take `COC(=O)N[C@H](C(=O)N1C[C@@H](C)C[C@H]1c1nc2cc(-c3ccc(-c4cc5[nH]c([C@@H]6C[C@H](C)CN6C(=O)[C@@H](NC(=O)OC)C(C)C)nc5s4)cc3)ccc2[nH]1)C(C)C`: the pEC50 in the data set on Hepatitis C virus [6] was 9.22. In data set [10], the CC50 was greater than 20 µM.

Regarding `COC(=O)N[C@H](C(=O)N1C[C@@H](C)C[C@H]1c1cc2cc(-c3ccc(-c4cc5[nH]c([C@@H]6C[C@H](C)CN6C(=O)[C@@H](NC(=O)OC)C(C)C)nc5s4)cc3)ccc2[nH]1)C(C)C`, the figures for the pEC50 in the data set with Hepatitis C virus [6] and in the data set on Hepatitis C virus [8] were 7.00 and 10.35, respectively. This molecule also returned a CC50 in data set [10] greater than 20 µM.

With `COC(=O)N[C@H](C(=O)N1C[C@@H](C)C[C@H]1c1ncc(-c2ccc(-c3cc4sc(-c5cc6[nH]c([C@@H]7C[C@H](C)CN7C(=O)[C@@H](NC(=O)OC)C(C)C)nc6s5)cc4s3)cc2)[nH]1)C(C)C`, the pEC50 in the data set with Hepatitis C virus [6] was 10.28; with Hepatitis C virus [8] it was 10.92. For the same molecule, the 50% cytotoxic concentration (CC50) in data set [10] is greater than 20 µM.

In the case of `COC(=O)N[C@H](C(=O)N1C[C@@H](C)C[C@H]1c1nc2cc(C#Cc3cc4[nH]c([C@@H]5C[C@H](C)CN5C(=O)[C@@H](NC(=O)OC)C(C)C)nc4s3)ccc2[nH]1)C(C)C`, the results for the pEC50 in the data set with Hepatitis C virus [6] and in the data set with Hepatitis C virus [8] were 7.41 and 10.96, respectively.

For the molecule `COC(=O)N[C@H](C(=O)N1C[C@@H](C)C[C@H]1c1ncc(-c2ccc(-c3ccc(-c4cc5[nH]c([C@@H]6C[C@H](C)CN6C(=O)[C@@H](NC(=O)OC)C(C)C)nc5s4)cc3C)cc2)[nH]1)C(C)C`, the pEC50 in the data set on Hepatitis C virus [6] was 10.43; with Hepatitis C virus [8] it was 11.70. The molecule also had a CC50 in data set [10] of 19.2 µM.

`COC(=O)N[C@H](C(=O)N1C[C@@H](C)C[C@H]1c1ncc(-c2ccc(-c3ccc(-c4cc5[nH]c([C@@H]6C[C@H](C)CN6C(=O)[C@@H](NC(=O)OC)C(C)C)nc5s4)cc3)cc2)[nH]1)C(C)C` showed a Cmax in the data set with Rattus norvegicus of 0.03 µg/mL. Besides, the remaining at 0.5 h, 5 µM came out at 90% in [9] and 100% in data set [13]. The same molecule displayed a CC50 in data set [10] greater than 20 µM. Moreover, the pIC50 on Cytochrome P450 2D6 was less than 4.52; against Cytochrome P450 3A4, less than 4.52; against Cytochrome P450 2C9 it was less than 4.52; in data set [12], less than 4.40.

Turning to `COC(=O)N[C@H](C(=O)N1C[C@@H](C)C[C@H]1c1ncc(-c2ccc(-c3ccc(-c4cc5[nH]c([C@@H]6C[C@H](C)CN6C(=O)[C@@H](NC(=O)OC)C(C)C)nc5s4)cc3F)cc2)[nH]1)C(C)C`, the values for the pEC50 in the data set on Hepatitis C virus [6] and in the data set on Hepatitis C virus [8] were 10.64 and 11.22, respectively. Moreover, the midpoint of cytotoxicity in data set [10], the CC50, lay at 20 µM.

What is called bioavailability is dose-corrected exposure relative to a reference, in per cent. A lower bioavailability goes with little systemic uptake. By half-life is commonly meant the time needed for the level to fall by half in the phase considered. Higher therefore signals slow loss. Usually clearance stands for a measure of how efficiently the substance is removed, as volume per time. For orientation: AUC(0-t) means exposure summed from dosing to a finite time, without extrapolation to infinity. Broadly, the pEC50 is −log10 of the EC50, conventionally taken in molar units. The Cmax is the peak of the concentration-time curve. Usually CC50 stands for the concentration that lowers cell viability or growth by half. Read a low CC50 as harm at low concentration. As a reminder, the pIC50 is the IC50 on a negative log10 scale, so that one unit is a factor of ten.
